Measurements from patent publication US20250241890A1, “1,4-DIUREAS AND 1,4-DITHIOUREAS AND USES THEREOF” (Purdue Research Foundation, priority 2024, published 2025).
Entries after “also recorded” stand apart in the source; their conditions may differ.

Biological target: T1, α-synuclein (α-syn) (Homo sapiens, UniProt P37840)
T1 construct: purchased rPeptide (Watkinsville, GA)
Experiment: PICUP assay of α-syn oligomer formation
Assay type: biochemical
Conditions: α-syn 60 μM, compound 50 μM (~molar ratio 1:1)
Procedure: Chemical and peptide source. Dimethylsulfoxide (DMSO) and thioflavin-T (ThT) were purchased from Alfa Aesar (Ward Hill, MA). Recombinant α-synuclein (α-syn) was procured from rPeptide (WatKinsville, GA). The recombinant p-tau isoform 1N4R was prepared as published previously (Fortin et al. 2021, Sui et al. 2015, Liu et al. 2020). Concerning the preparation of tau 0N4R, a bacterial expression plasmid consisting of the vector pET30a carrying a cDNA encoding the human Tau 0N4R isoform was a kind gift of Dr. Benjamin Wolozin (Boston University). E. coli stock (Rosetta BL21 E. coli (CamR) containing pET30a [0N4R tau wt] (KanR)) was grown in LB medium supplemented with kanamycin (50 μg/mL) and chloramphenicol (50 μg/mL). Protein over-expression was induced by the addition of 1 mM IPTG for ˜18 hours at 37° C., and cells were pelleted by centrifugation at 6,000 g for 15 minutes at 4° C. The cells were resuspended in lysis buffer (10 mM Hepes, pH 7.4, 50 mM NaCl, 1 mM MgCl2, 1 mM PMSF, 1× PIC, and 0.5 mM DTT) and lysed by sonication at 30 seconds “On” and 1 minute “Off” at ˜30-45% power for ˜3-5 minutes. Lysate was centrifuged at 10,000 rpm for 10 minutes at 4° C., and supernatant was transferred with 7.8 ml (total) of 3M NaCl. The lysate was incubated for 10 minutes in 80° C. water bath, then cooled for 10 minutes in an ice bath. The lysate was centrifuged at 10,000 rpm at 4° C. for 10 minutes, and the supernatant was transferred to a new tube. The supernatant was dialyzed overnight against cation exchange buffer (50 mM MES, […], 1 mM DTT, pH 6.0). The dialysate was loaded onto a HiPrep SP HP column, and proteins were eluted with a linear gradient ranging from 50 mM to 1 M NaCl. General Characterizations. ^1H and ^13C {1H} NMR spectra were recorded using a 500 MHz Bruker instrument working at a frequency of 500 MHz for ^1H and at 126 MHz for ^13C. Chemical shifts are reported in ppm using residual solvent resonances as internal reference (δ 2.50 and δ 39.51 for ^1H and ^13C in DMSO-d6, respectively). ^1H NMR data are reported as follows. b=broad, s=singlet, d=doublet, t=triplet, q=quartet, and m=multiplet. Coupling constants are given in hertz. The purity of all compounds and synthetic intermediates was judged to be 95% or better based on ^1H NMR. IR measurements were performed in a Nicolet FTIR as thin films in the Purdue Drug Discovery facility. High-resolution mass spectrometry analyses were conducted at the MSU Mass Spectrometry facility. Thioflavin fluorescence assays. Thioflavin fluorescence assays were used to monitor fibril formation of commercial recombinant α-syn at a final concentration of 2 μM and treated with control DMSO and different compounds. The recombinant α-syn obtained from rPeptide has been validated with proper quality control to confirm the monomeric state of the protein. Kinetics of fibril formation have been performed using ThT as published previously.^6, 12, 13, 24 The fluorescence emission experiments were performed with the excitation and emission wavelengths set at 440 and 485 nm, respectively, with a Synergy HT multi-mode microplate reader (BioTek, Winooski, VT). Samples were measured in three replicates. Experiments were repeated three times using different α-syn stock solutions. For each time point, arbitrary units of fluorescence were calculated from the mean values normalized against the maximum value. The percentage of fluorescence intensity at the plateau phase in Table 1 was expressed as mean #SEM. Concerning the dose response curve depicted in FIG. 2, the data were plotted using GraphPad Prism. Photo-induced Cross-linking of Unmodified Proteins (PICUP) Assay. […] Different compounds were added to the protein solution at a final concentration of 50 μM, resulting in a molar ratio of 1:1. PICUP assays were performed with the following controls: samples without light exposition, without Ru(bpy) or ammonium persulfate, and without compound (i.e., 0.125% DMSO). […]

Compound | effect on α-syn oligomer formation (high molecular weight bands) by PICUP
Nc1cccc2[nH]ccc12 [4-aminoindole, reference compound] | abrogated the formation of high molecular weight bands
Nc1ccc2[nH]ccc2c1 [5-aminoindole, reference compound] | abrogated the formation of high molecular weight bands
Nc1ccc2cc[nH]c2c1 [6-aminoindole, reference compound] | abrogated the formation of high molecular weight bands
O=C(Nc1ccc(NC(=O)Nc2ccc3[nH]ccc3c2)cc1)Nc1ccc2[nH]ccc2c1 [Compound 3, 3-(1H-indol-5-yl)-1-(4-{[(1H-indol-5-yl)carbamoyl]amino}phenyl)urea] | mediocre; also recorded: reduced slightly

Biological target: T1, α-synuclein (α-syn)
Experiment: Thioflavin T (ThT) fluorescence assay of α-syn fibril formation
Assay type: biochemical
Conditions: α-syn 2 μM final concentration, compounds at 100 μM, average of three replicates with SEM
Procedure: Chemical and peptide source. Dimethylsulfoxide (DMSO) and thioflavin-T (ThT) were purchased from Alfa Aesar (Ward Hill, MA). Recombinant α-synuclein (α-syn) was procured from rPeptide (WatKinsville, GA). The recombinant p-tau isoform 1N4R was prepared as published previously (Fortin et al. 2021, Sui et al. 2015, Liu et al. 2020). Concerning the preparation of tau 0N4R, a bacterial expression plasmid consisting of the vector pET30a carrying a cDNA encoding the human Tau 0N4R isoform was a kind gift of Dr. Benjamin Wolozin (Boston University). E. coli stock (Rosetta BL21 E. coli (CamR) containing pET30a [0N4R tau wt] (KanR)) was grown in LB medium supplemented with kanamycin (50 μg/mL) and chloramphenicol (50 μg/mL). Protein over-expression was induced by the addition of 1 mM IPTG for ˜18 hours at 37° C., and cells were pelleted by centrifugation at 6,000 g for 15 minutes at 4° C. The cells were resuspended in lysis buffer (10 mM Hepes, pH 7.4, 50 mM NaCl, 1 mM MgCl2, 1 mM PMSF, 1× PIC, and 0.5 mM DTT) and lysed by sonication at 30 seconds “On” and 1 minute “Off” at ˜30-45% power for ˜3-5 minutes. Lysate was centrifuged at 10,000 rpm for 10 minutes at 4° C., and supernatant was transferred with 7.8 ml (total) of 3M NaCl. The lysate was incubated for 10 minutes in 80° C. water bath, then cooled for 10 minutes in an ice bath. The lysate was centrifuged at 10,000 rpm at 4° C. for 10 minutes, and the supernatant was transferred to a new tube. The supernatant was dialyzed overnight against cation exchange buffer (50 mM MES, […], 1 mM DTT, pH 6.0). The dialysate was loaded onto a HiPrep SP HP column, and proteins were eluted with a linear gradient ranging from 50 mM to 1 M NaCl. General Characterizations. ^1H and ^13C {1H} NMR spectra were recorded using a 500 MHz Bruker instrument working at a frequency of 500 MHz for ^1H and at 126 MHz for ^13C. Chemical shifts are reported in ppm using residual solvent resonances as internal reference (δ 2.50 and δ 39.51 for ^1H and ^13C in DMSO-d6, respectively). ^1H NMR data are reported as follows. b=broad, s=singlet, d=doublet, t=triplet, q=quartet, and m=multiplet. Coupling constants are given in hertz. The purity of all compounds and synthetic intermediates was judged to be 95% or better based on ^1H NMR. IR measurements were performed in a Nicolet FTIR as thin films in the Purdue Drug Discovery facility. High-resolution mass spectrometry analyses were conducted at the MSU Mass Spectrometry facility. Thioflavin fluorescence assays. […] The recombinant α-syn obtained from rPeptide has been validated with proper quality control to confirm the monomeric state of the protein. Kinetics of fibril formation have been performed using ThT as published previously.^6, 12, 13, 24 The fluorescence emission experiments were performed with the excitation and emission wavelengths set at 440 and 485 nm, respectively, with a Synergy HT multi-mode microplate reader (BioTek, Winooski, VT). Samples were measured in three replicates. Experiments were repeated three times using different α-syn stock solutions. For each time point, arbitrary units of fluorescence were calculated from the mean values normalized against the maximum value. The percentage of fluorescence intensity at the plateau phase in Table 1 was expressed as mean #SEM. Concerning the dose response curve depicted in FIG. 2, the data were plotted using GraphPad Prism. Photo-induced Cross-linking of Unmodified Proteins (PICUP) Assay. To induce oligomerization by cross-linking, α-syn (from Rpeptide, LLC) was diluted in 10 mM phosphate buffer (pH 7.4) to reach a final concentration of 50 μM. Different compounds were added to the protein solution at a final concentration of 50 μM, resulting in a molar ratio of 1:1. PICUP assays were performed with the following controls: samples without light exposition, without Ru(bpy) or ammonium persulfate, and without compound (i.e., 0.125% DMSO). […]

Compound | % ThT intensity (100 μM), maximum ThT intensity in percentage
1,1′-(1,4-phenylene)bis(3-(pyridin-4-yl)urea) [Compound 19] | 19 41.6 ± 3.6%
1,1′-(1,4-phenylene)bis(3-cyclohexylthiourea) [Compound 20] | 20 85% ± <15

Same assay, conditions: α-syn 2 μM final concentration, compounds at 100 μM, average of three replicates with SEM; read-out: % ThT intensity (100 μM), maximum ThT intensity in percentage

Compound | remaining activity at 100 µM
O=C(Nc1ccc(NC(=O)Nc2ccc3[nH]ccc3c2)cc1)Nc1ccc2[nH]ccc2c1 [Compound 3, 3-(1H-indol-5-yl)-1-(4-{[(1H-indol-5-yl)carbamoyl]amino}phenyl)urea] | 57%
O=C(Nc1ccccc1)Nc1ccc(NC(=O)Nc2ccccc2)cc1 [Compound 9, 1-phenyl-3-{4-[(phenylcarbamoyl)amino]phenyl}urea] | 93.5%
S=C(Nc1ccccc1)Nc1ccc(NC(=S)Nc2ccccc2)cc1 [Compound 10, 1-phenyl-3-{4-[(phenylcarbamothioyl)amino]phenyl}thiourea] | 94%
O=C(Nc1cccc2[nH]ccc12)N[C@H]1CC[C@H](NC(=O)Nc2cccc3[nH]ccc23)CC1 [Compound 21, 1,1′-((1R,4R)-cyclohexane-1,4-diyl)bis(3-(1H-indol-4-yl)urea)] | 91.6%
Cc1c(NC(=O)Nc2ccc(N3CCOCC3)cc2)cccc1NC(=O)Nc1ccc(N2CCOCC2)cc1 [Compound 22, 1,1′-(2-methyl-1,3-phenylene)bis(3-(4-morpholinophenyl)urea)] | 93.5%

Same assay, conditions: α-syn 6 μM final concentration, compounds at 100 μM, average of three replicates

Compound | maximum thioflavin T (ThT) intensity in percentage
O=C(Nc1ccccc1)Nc1cccc(NC(=O)Nc2ccccc2)c1 [Compound 11, 3-phenyl-1-{3-[(phenylcarbamoyl)amino]phenyl}urea] | Compound 11 108.6 ± 4.7%
O=C(Nc1cccc(NC(=O)Nc2cccc3[nH]ccc23)c1)Nc1cccc2[nH]ccc12 [Compound 12, 3-(1H-indol-4-yl)-1-(3-{[(1H-indol-4-yl)carbamoyl]amino}phenyl)urea] | Compound 12 8.8 ± 0.2%
O=C(Nc1cccc(NC(=O)Nc2ccc3[nH]ccc3c2)c1)Nc1ccc2[nH]ccc2c1 [Compound 13, 3-(1H-indol-5-yl)-1-(3-{[(1H-indol-5-yl)carbamoyl]amino}phenyl)urea] | Compound 13 27.7 ± 2.9%
O=C(Nc1cccc(NC(=O)Nc2ccc3cc[nH]c3c2)c1)Nc1ccc2cc[nH]c2c1 [Compound 14, 3-(1H-indol-6-yl)-1-(3-{[(1H-indol-6-yl)carbamoyl]amino}phenyl)urea] | Compound 14 12.4 ± 1.8%
O=C(Nc1cccc(NC(=O)Nc2cccc3[nH]ccc23)c1)Nc1cccc2[nH]ccc12 [Compound 15, 3-(1H-indol-4-yl)-1-(3-{[(1H-indol-4-yl)carbamoyl]amino}phenyl)urea] | Compound 15 28.1 ± 2.1%
Cc1c(NC(=O)Nc2cccc3[nH]ccc23)cccc1NC(=O)Nc1cccc2[nH]ccc12 [Compound 16, 3-(1H-indol-4-yl)-1-(3-{[(1H-indol-4-yl)carbamoyl]amino}-2-methylphenyl)urea] | Compound 16 23.4 ± 0.2%
Cc1c(NC(=O)Nc2ccc3[nH]ccc3c2)cccc1NC(=O)Nc1ccc2[nH]ccc2c1 [Compound 17, 3-(1H-indol-5-yl)-1-(3-{[(1H-indol-5-yl)carbamoyl]amino}-2-methylphenyl)urea] | Compound 17 116.4 ± 8.8%
Cc1c(NC(=O)Nc2ccc3cc[nH]c3c2)cccc1NC(=O)Nc1ccc2cc[nH]c2c1 [Compound 18, 3-(1H-indol-6-yl)-1-(3-{[(1H-indol-6-yl)carbamoyl]amino}-2-methylphenyl)urea] | Compound 18 49.7 ± 5.0%
